In ChEMBL document CHEMBL5149973, “Agaricus bisporus-Derived Glucosamine Hydrochloride Facilitates Skeletal Injury Repair through Bmp Signaling in Zebrafish Osteoporosis Model” (J Nat Prod, 2021):
Activity calls are given as the source filed them.

How the values were obtained:
Osteoblast = test: Induction of osteoblast differentiation in Zebrafish embryo assessed as upregulation of runx2b gene expression in parasphenoid measured at 0.75 to 72 hrs post fertilization at 0.05 to 0.3 % by […] analysis; format: functional; conditions: Danio rerio, dose 0.05-0.3 %, time 0.75-72 hrs
Danio rerio [1] = species on record: Danio rerio; test: Anti-osteoporosis activity in FAC-induced skeletal injury Zebrafish assessed as increase in cumulative bone optical density in spine at 0.1 % measured for 10 day post fertilization; format: functional, organism-based
Danio rerio [2] = species on record: Danio rerio; test: Induction of transgenic Zebrafish embryo skeletal development assessed as increase in GFP expression level in neural crest at 0.05 to 0.3 % measured at 24 to 72 hrs post fertilization by DAPI staining based analysis; format: functional, tissue-based; conditions: dose 0.05-0.3 %, time 24-72 hrs
[3] = Induction of Zebrafish Larva cartilage development assessed as increase in H1 phenotype ratio at 0.1 % measured after 5 days post fertilization by Alcian blue staining based assay; format: functional, Danio rerio; conditions: time 5 day
[4] = Induction of Zebrafish Larva cartilage development assessed as increase in H3 phenotype ratio at 0.05 % measured after 5 days post fertilization by Alcian blue staining based assay; format: functional, Danio rerio; conditions: time 5 day
Danio rerio [5] = species on record: Danio rerio; test: Suppression of Bmp signaling in mCherry Zebrafish embryos assessed as increase in colocalization in tail by measuring fluorescence intensity at 0.1 % measured at 36 hrs post fertilization; format: functional, organism-based; conditions: Embryo

Measured: Activity

Cl.N[C@@H]1[C@@H](O)[C@H](O)[C@@H](CO)O[C@H]1O
active: Osteoblast | Danio rerio [1] | Danio rerio [2] | Danio rerio [5]
40%: [3] | [4]
